Measured values: publication PMC8158245, “Novel chalcone/aryl carboximidamide hybrids as potent anti-inflammatory via inhibition of prostaglandin E2 and inducible NO synthase activities: design, synthesis, molecular docking studies and ADMET prediction” (Journal of Enzyme Inhibition and Medicinal Chemistry, 2021)
Values joined by “and” are separate entries in the source; they are usually repeats but may differ in a detail not shown here. Equal values may be shown once.

Key:
[1] = tested on: carrageenan-induced paw edoema; test: Carrageenan-induced rat paw edoema; format: in vivo, Wistar albino rats; details: rat, 50 mg/kg oral; for % of edoema inhibition (% mean ± SEM), 1 h: 1 h after carrageenan; for % of edoema inhibition (% mean ± SEM), 2 h: 2 h after carrageenan; for % of edoema inhibition (% mean ± SEM), 3 h: 3 h after carrageenan; for % of edoema inhibition (% mean ± SEM), 4 h: 4 h after carrageenan
Protocol: The anti-inflammatory activity of the inspiring active compounds in vitro (4c, 4d, 6a, 6c, 6d and 6e) were further estimated in vivo using the carrageenan-induced paw edoema test. […] The paw thickness was assessed using Vernier calliper after carrageenan injection for 1,2, 3 and 4 h. Wistar albino rats (males weighing 120–140 g, six rats per group) were grouped as follows: Group 1 (Control) rats were received the vehicle. […] The percentage inhibition of edoema thickness was calculated at each time interval in comparison to the control group.

[2] = tested on: LPS-induced NO production in RAW 264.7 cells; test: Griess assay for NO release from LPS-stimulated RAW 264.7 cells; format: cell-based; details: Mus musculus, RAW264.7; for inhibition at 5 µM: compounds at 5 µM, 2 h before LPS, RAW 264.7 cells, read-out: NO Inhibition rates (%) ± SD; for IC50: LPS-induced RAW 264.7 cells
Protocol: Equal volumes of Griess reagent and the supernatant, obtained from treated RAW264.7 cells with the compounds 2 h before LPS induction, were mixed for 10 min at room temperature in the dark. The absorbance was measured at 540 nm using ELISA plate reader and the nitrite concentration was calculated from sodium nitrite standard curve. The percentage inhibition (%) is calculated as absorbance at 540 nm of (LPS-compounds)/absorbance at 540 nm of (LPS-control) ×100[47]^,[48].

[3] = MTT cytotoxicity assay on RAW 264.7 cells; format: cell-based; details: mouse; for IC50 at 20 h: with LPS; for IC50: without LPS
Protocol: MTT assay was used to assess the cell viability of RAW 264.7 cells cultured in RPMI-1640 complete media. […] Afterwards, 5 µl of MTT solution were added and incubated for further 4 h. Finally, 150 ul of dimethyl sulfoxide (DMSO) were added and the optical density was assessed at 570 nm using an ELISA plate reader.

iNOS = target: T1, iNOS (Mus musculus, UniProt P29477); test: iNOS enzymatic activity in LPS-induced RAW 264.7 cells; format: cell-based
T1 construct: endogenous in cells; host or cells: RAW 264.7 cells induced with LPS
T1 sequence (P29477 1-1144): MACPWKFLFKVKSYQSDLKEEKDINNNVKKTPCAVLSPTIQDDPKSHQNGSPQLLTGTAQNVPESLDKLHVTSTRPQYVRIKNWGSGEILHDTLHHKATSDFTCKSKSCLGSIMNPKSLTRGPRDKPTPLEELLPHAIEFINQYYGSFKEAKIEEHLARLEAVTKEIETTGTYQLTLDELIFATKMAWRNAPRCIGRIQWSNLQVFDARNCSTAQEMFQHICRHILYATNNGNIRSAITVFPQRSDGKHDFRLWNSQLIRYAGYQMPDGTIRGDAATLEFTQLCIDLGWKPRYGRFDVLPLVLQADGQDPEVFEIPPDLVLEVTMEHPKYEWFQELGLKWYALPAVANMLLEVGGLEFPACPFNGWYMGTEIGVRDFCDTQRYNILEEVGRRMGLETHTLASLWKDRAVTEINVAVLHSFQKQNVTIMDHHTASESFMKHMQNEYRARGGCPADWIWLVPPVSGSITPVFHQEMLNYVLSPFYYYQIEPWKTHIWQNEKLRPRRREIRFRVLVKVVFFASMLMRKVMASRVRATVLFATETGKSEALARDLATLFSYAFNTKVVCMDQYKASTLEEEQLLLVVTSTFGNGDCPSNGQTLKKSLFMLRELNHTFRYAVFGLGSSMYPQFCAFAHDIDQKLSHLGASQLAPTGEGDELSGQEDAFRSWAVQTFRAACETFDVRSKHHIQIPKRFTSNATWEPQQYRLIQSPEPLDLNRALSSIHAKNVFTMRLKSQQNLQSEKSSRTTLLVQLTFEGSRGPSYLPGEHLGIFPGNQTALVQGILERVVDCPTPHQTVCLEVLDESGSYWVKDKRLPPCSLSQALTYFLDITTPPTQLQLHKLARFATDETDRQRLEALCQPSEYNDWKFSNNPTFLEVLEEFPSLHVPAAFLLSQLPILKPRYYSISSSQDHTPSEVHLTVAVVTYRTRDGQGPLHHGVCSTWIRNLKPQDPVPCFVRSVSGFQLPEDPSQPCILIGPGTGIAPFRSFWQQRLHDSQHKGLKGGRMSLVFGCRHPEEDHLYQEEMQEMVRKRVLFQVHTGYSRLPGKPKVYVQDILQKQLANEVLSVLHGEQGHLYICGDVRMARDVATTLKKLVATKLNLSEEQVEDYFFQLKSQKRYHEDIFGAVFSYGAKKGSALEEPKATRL
Protocol: Then, the NOS assay reaction solution (100 µl/well) was added and incubated for an extra 2 h at 37 °C. The fluorescence with excitation wavelength at 485 nm and emission wavelength at 528 nm was measured using a fluorescent microplate reader.

[4] = tested on: PGE2 production in RAW 264.7 cells; test: PGE2 concentration by ELISA in LPS-treated RAW 264.7 cells; format: cell-based; details: Mus musculus, RAW264.7; LPS-induced RAW 264.7 cells
Protocol: After seeding and incubation of RAW 264.7 cells for 24 h, then the cells were treated with the compounds (4c, 4d, 6a, 6c, 6d and 6e) at different concentrations and with LPS (1 µg/ml) for another 24 h. The concentration of prostaglandin E2 (PGE2) was measured in the culture media using ELISA kit (R&D Systems, Minneapolis, MN)[50].

bovine COX-1 = target: T2, bovine COX-1 (Ovis aries, UniProt P05979); test: In vitro COX-1 inhibition assay (Cayman kit); format: biochemical
T2 construct: purchased Cayman Chemical 560101
T2 sequence (P05979 25-600): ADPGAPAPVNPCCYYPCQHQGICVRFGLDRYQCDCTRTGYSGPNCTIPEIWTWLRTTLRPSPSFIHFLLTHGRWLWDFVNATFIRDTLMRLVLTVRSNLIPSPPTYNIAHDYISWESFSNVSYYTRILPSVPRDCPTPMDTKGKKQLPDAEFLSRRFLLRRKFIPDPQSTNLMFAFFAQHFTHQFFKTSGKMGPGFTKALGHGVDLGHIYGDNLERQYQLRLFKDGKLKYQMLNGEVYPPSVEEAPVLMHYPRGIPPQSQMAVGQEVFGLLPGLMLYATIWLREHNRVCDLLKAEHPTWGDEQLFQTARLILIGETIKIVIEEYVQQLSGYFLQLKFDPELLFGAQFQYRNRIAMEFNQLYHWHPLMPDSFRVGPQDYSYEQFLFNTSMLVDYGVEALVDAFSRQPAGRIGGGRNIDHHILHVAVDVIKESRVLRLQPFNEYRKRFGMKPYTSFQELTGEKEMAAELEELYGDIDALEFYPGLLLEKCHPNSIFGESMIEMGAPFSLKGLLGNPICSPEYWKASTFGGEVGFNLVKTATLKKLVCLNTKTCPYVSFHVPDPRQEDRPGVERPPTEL

COX-2 = test: In vitro COX-2 inhibition assay (Cayman kit); format: biochemical, bovine; details: selectivity index from COX 1 and COX 2 IC50
[5] = listed as indomethacin, 50 mg/kg

SMILES | % of edoema inhibition (% mean ± SEM), 1 h [1] [%] | % of edoema inhibition (% mean ± SEM), 2 h [1] [%] | % of edoema inhibition (% mean ± SEM), 3 h ([1]; 50 mg/kg) | % of edoema inhibition (% mean ± SEM), 4 h ([1]; 50 mg/kg) | inhibition at 5 µM [2] [%] | melting point [°C] | IC50 at 20 h [3] [µM] | IC50 [3] [µM] | IC50 [2] [µM] | IC50 (iNOS) [µM] | IC50 [4] [µM] | other results
Cc1ccc(-c2cc(C(F)(F)F)nn2-c2ccc(S(N)(=O)=O)cc2)cc1 [Celecoxib, reference compound] | 10.61 ± 2.59 | 25.43 ± 3.29 | 46.42 ± 2.87% | 12.32 ± 2.42% |  |  |  |  |  |  |  | % of edoema inhibition (% mean ± SEM), 3 h [1]: 46.42%; % of edoema inhibition (% mean ± SEM), 4 h ([1]; listed as celecoxib, 50 mg/kg): 12.32%
COc1ccc(/C=C/C(=O)c2ccc(OCC(=O)O/N=C(\N)c3ccccc3)cc2)cc1 [Compound 4a, N’-(2-{4-[(2E)-3-(4-Methoxyphenyl)prop-2-enoyl]phenoxy}acetoxy) benzenecarboximidamide] |  |  |  |  | 41.9 ± 1.4 | 164 to 166 |  |  |  |  |  | 
COc1ccc(/C=C/C(=O)c2ccc(OCC(=O)ON=C(N)c3ccc(Cl)cc3)cc2)cc1 [Compound 4b, N’-(2-{4-[(2E)-3-(4-Methoxyphenyl)prop-2-enoyl]phenoxy}acetoxy)-4-chlorobenzenecarboximidamide] |  |  |  |  | 47.6 ± 3.6 | 180 to 182 |  |  |  |  |  | 
COc1ccc(/C=C/C(=O)c2ccc(OCC(=O)ON=C(N)c3ccc(OC)cc3)cc2)cc1 [Compound 4c, N’-(2-{4-[(2E)-3-(4-Methoxyphenyl)prop-2-enoyl]phenoxy}acetoxy)-4-methoxybenzenecarboximidamide] | 11.21 ± 2.41 | 33.62 ± 2.69 | 57.71% and 57.71 ± 2.21% | 69.86% and 69.86 ± 3.51% | 62.3 ± 1.9 |  | > 80 | > 80 | 8.61 | 3.62 | 0.0323 | IC50 (bovine COX-1): 19.9 ± 1.03 µM; SI (COX-2): 6.06
COc1ccc(/C=C/C(=O)c2ccc(OCC(=O)ON=C(N)c3ccc(OC)c(OC)c3)cc2)cc1 [Compound 4d, N’-(2-{4-[(2E)-3-(4-Methoxyphenyl)prop-2-enoyl]phenoxy}acetoxy)-3,4-dimethoxybenzenecarboximidamide] | 11.65 ± 2.26 | 34.78 ± 3.34 | 69.5% and 69.50 ± 1.49% |  | 73.5 ± 2.1 |  | > 80 | > 80 | 5.73 | 2.22 | 0.0247 | IC50 (bovine COX-1): 5.82 ± 0.3 µM; SI (COX-2): 0.25; % of edoema inhibition (% mean ± SEM), 4 h [1]: 54.21 ± 3.47%
COc1ccc(/C=C/C(=O)c2ccc(OCC(=O)ON=C(N)c3ccc([N+](=O)[O-])cc3)cc2)cc1 [Compound 4e, N’-(2-{4-[(2E)-3-(4-Methoxyphenyl)prop-2-enoyl]phenoxy}acetoxy)-4-nitrobenzenecarboximidamide] |  |  |  |  | 44.1 ± 2.8 | 184 to 186 |  |  |  |  |  | % of edoema inhibition (% mean ± SEM), 3 h [1]: 39.26%
COc1ccc(/C=C/C(=O)c2ccc(OCC(=O)O/N=C(\N)c3ccc4ccccc4c3)cc2)cc1 [Compound 4f, N’-(2-{4-[(2E)-3-(4-Methoxyphenyl)prop-2-enoyl]phenoxy}acetoxy) naphthalene-2-carboximidamide] |  |  |  |  | 31.2 ± 2.2 | 176 to 178 |  |  |  |  |  | 
COc1ccc(C(=O)/C=C/c2ccc(OCC(=O)ON=C(N)c3ccc(Cl)cc3)cc2)cc1 [Compound 6b, N’-(2-{4-[(1E)-3-(4-Methoxyphenyl)-3-oxoprop-1-en-1-yl]phenoxy}acetoxy) -4-chlorobenzenecarboximidamide] |  |  |  |  | 49.6 ± 2.3 | 192 to 193 |  |  |  |  |  | 
COc1ccc(C(=O)/C=C/c2ccc(OCC(=O)ON=C(N)c3ccc(OC)cc3)cc2)cc1 [Compound 6c, N’-(2-{4-[(1E)-3-(4-Methoxyphenyl)-3-oxoprop-1-en-1-yl]phenoxy}acetoxy)-4-methoxybenzenecarboximidamide] | 11.42 ± 1.75 | 28.44 ± 2.75 | 54.36% and 54.36 ± 2.34% | 62.21% and 62.21 ± 3.46% | 67.1 ± 2.4 |  | > 80 | > 80 | 5.92 | 2.45 | 0.0275 | IC50 (bovine COX-1): 64.4 ± 3.35 µM; SI (COX-2): 7.79
COc1ccc(C(=O)/C=C/c2ccc(OCC(=O)O/N=C(\N)c3ccc4ccccc4c3)cc2)cc1 [Compound 6f] |  |  |  |  | 29.4 ± 2.5 | 178 to 179 |  |  |  |  |  | 
COc1ccc2c(c1)c(CC(=O)O)c(C)n2C(=O)c1ccc(Cl)cc1 [Indomethacin, reference compound] | 28.03 ± 1.35 | 45.27 ± 2.48 | 63.71 ± 3.48% | 56.27 ± 2.14% | 25.5 |  | > 80 | > 80 | 45.7 | 24.6 | 0.0766 | % of edoema inhibition (% mean ± SEM), 3 h [1, 5]: 63.71%; % of edoema inhibition (% mean ± SEM), 4 h [1, 5]: 56.27%
